Laboratory results as given in the supplement of paper PMC6045584.
± gives the standard deviation of the averaged measurements.

Columns and labels:
[1] = compound: Cc1nc(Nc2n[nH]c3c2CN(C(=O)N[C@H](CN(C)C)c2ccccc2)C3(C)C)c2sccc2n1; assay: surviving fraction relative to DMSO-only wells; higher = less growth inhibition; settings: exposure time: 5 days
Method in brief: (§1)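 Viability values are CellTiter-Glo luminescence readings, given as surviving fraction against the median of DMSO-only wells. The readings were taken after 10 minutes at room temperature, following five days of continuous exposure to inhibitors at 0.5, 1, 5, 10, 50, 100, 500 and 1000 nM that began 24 hours after log-phase tumour cell lines were seeded at 250–500 cells per well in 384-well plates. Every line was screened three times and kept only if replicate Pearson r >0.7 and median Z' >0.3.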

EVEROLIMUS = compound: CO[C@H]1C[C@@H]2CC[C@@H](C)[C@@](O)(O2)C(=O)C(=O)N2CCCC[C@H]2C(=O)O[C@H]([C@H](C)C[C@@H]2CC[C@@H](OCCO)[C@H](OC)C2)CC(=O)[C@H](C)/C=C(\C)[C@@H](O)[C@@H](OC)C(=O)[C@H](C)C[C@H](C)/C=C/C=C/C=C/1C [EVEROLIMUS]; assay: as above; settings: exposure time: 5 days
Method in brief: as §1

Row | Test System | surviving fraction ([1]; 0.5 nM) | surviving fraction ([1]; 1 nM) | surviving fraction ([1]; 5 nM) | surviving fraction ([1]; 10 nM) | surviving fraction ([1]; 50 nM) | surviving fraction ([1]; 100 nM) | surviving fraction ([1]; 500 nM) | surviving fraction ([1]; 1000 nM) | surviving fraction (EVEROLIMUS; 0.5 nM) | surviving fraction (EVEROLIMUS; 1 nM) | surviving fraction (EVEROLIMUS; 5 nM) | surviving fraction (EVEROLIMUS; 10 nM) | surviving fraction (EVEROLIMUS; 50 nM) | surviving fraction (EVEROLIMUS; 100 nM) | surviving fraction (EVEROLIMUS; 500 nM) | surviving fraction (EVEROLIMUS; 1000 nM)
1 | ASKA SYNOVIAL | 0.673 ± 0.043 | 1.09 ± 0.022 | 0.4283 ± 0.0031 | 1.16 ± 0.16 | 0.43 ± 0.027 | 1.28 ± 0.018 | 0.3113 ± 0.0015 | 1.08 ± 0.051 | 1 ± 0.077 | 0.93 ± 0.1 | 0.787 ± 0.085 | 0.62 ± 0.049 | 0.612 ± 0.022 | 0.576 ± 0.051 | 0.531 ± 0.036 | 0.577 ± 0.04
2 | KPD BONE | 0.632 ± 0.036 | 0.569 ± 0.027 | 0.425 ± 0.042 | 0.344 ± 0.011 | 0.259 ± 0.021 | 0.224 ± 0.027 | 0.0937 ± 0.01 | 0.058 ± 0.0053 | 0.603 ± 0.044 | 0.529 ± 0.026 | 0.457 ± 0.016 | 0.422 ± 0.019 | 0.408 ± 0.025 | 0.384 ± 0.017 | 0.343 ± 0.012 | 0.338 ± 0.02
3 | NY BONE | 0.934 ± 0.041 | 0.725 ± 0.025 | 0.527 ± 0.016 | 0.467 ± 0.031 | 0.447 ± 0.014 | 0.402 ± 0.018 | 0.258 ± 0.011 | 0.0807 ± 0.0051 | 0.789 ± 0.012 | 0.766 ± 0.024 | 0.729 ± 0.01 | 0.688 ± 0.019 | 0.692 ± 0.013 | 0.707 ± 0.015 | 0.644 ± 0.032 | 0.6403 ± 0.0042
4 | MDAMB468 BREAST | 1.054 ± 0.0091 | 0.914 ± 0.085 | 0.213 ± 0.02 | 0.19 ± 0.011 | 0.096 ± 0.004 | 0.102 ± 0.0076 | 0.0473 ± 0.0076 | 0.0353 ± 0.0015 | 0.759 ± 0.076 | 0.669 ± 0.043 | 0.599 ± 0.031 | 0.546 ± 0.045 | 0.55 ± 0.017 | 0.601 ± 0.0052 | 0.551 ± 0.044 | 0.522 ± 0.066
5 | BT549 BREAST | 1.02 ± 0.065 | 0.928 ± 0.064 | 0.299 ± 0.035 | 0.232 ± 0.034 | 0.0943 ± 0.0086 | 0.092 ± 0.019 | 0.0593 ± 0.012 | 0.052 ± 0.02 | 0.569 ± 0.026 | 0.531 ± 0.061 | 0.415 ± 0.032 | 0.499 ± 0.079 | 0.4507 ± 0.0023 | 0.418 ± 0.05 | 0.365 ± 0.017 | 0.356 ± 0.027
6 | SCC90 HEADNECK | 0.981 ± 0.092 | 0.893 ± 0.19 | 0.516 ± 0.016 | 0.523 ± 0.027 | 0.488 ± 0.04 | 0.467 ± 0.028 | 0.185 ± 0.016 | 0.177 ± 0.034 | 0.857 ± 0.032 | 0.816 ± 0.08 | 0.68 ± 0.048 | 0.643 ± 0.028 | 0.556 ± 0.019 | 0.563 ± 0.039 | 0.522 ± 0.063 | 0.5257 ± 0.0047
7 | U2OS BONE | 0.974 ± 0.038 | 0.901 ± 0.058 | 0.631 ± 0.016 | 0.453 ± 0.025 | 0.188 ± 0.025 | 0.142 ± 0.015 | 0.075 ± 0.0027 | 0.0633 ± 0.0015 | 0.954 ± 0.025 | 0.88 ± 0.039 | 0.7943 ± 0.0025 | 0.706 ± 0.039 | 0.678 ± 0.011 | 0.651 ± 0.029 | 0.633 ± 0.012 | 0.568 ± 0.03
8 | SUM149.B1*.S BREAST | 1.05 ± 0.021 | 1.04 ± 0.013 | 0.473 ± 0.02 | 0.817 ± 0.017 | 0.279 ± 0.032 | 0.748 ± 0.032 | 0.24 ± 0.0095 | 0.691 ± 0.046 | 1.11 ± 0.032 | 1.06 ± 0.034 | 1.04 ± 0.039 | 0.754 ± 0.082 | 0.696 ± 0.16 | 0.681 ± 0.17 | 0.698 ± 0.13 | 0.653 ± 0.13
9 | MG63 BONE | 0.921 ± 0.038 | 0.805 ± 0.025 | 0.468 ± 0.0074 | 0.336 ± 0.024 | 0.257 ± 0.016 | 0.275 ± 0.0096 | 0.228 ± 0.015 | 0.227 ± 0.013 | 0.954 ± 0.019 | 0.8723 ± 0.0081 | 0.747 ± 0.027 | 0.6393 ± 0.0057 | 0.594 ± 0.026 | 0.57 ± 0.02 | 0.481 ± 0.021 | 0.4813 ± 0.0035
10 | MDAMB134 BREAST | 0.805 ± 0.016 | 0.954 ± 0.014 | 0.909 ± 0.029 | 0.924 ± 0.02 | 1.04 ± 0.044 | 1.02 ± 0.017 | 1.13 ± 0.035 | 0.961 ± 0.2 | 0.843 | 0.789 ± 0.071 | 0.63 ± 0.069 | 0.642 ± 0.11 | 0.616 ± 0.1 | 0.688 ± 0.11 | 0.569 ± 0.11 | 0.573 ± 0.09
11 | SG32 HEADNECK | 1.04 ± 0.29 | 0.756 ± 0.027 | 0.363 ± 0.013 | 0.247 ± 0.017 | 0.206 ± 0.014 | 0.148 ± 0.021 | 0.0707 ± 0.012 | 0.041 ± 0.011 | 1.22 ± 0.19 | 1.22 ± 0.15 | 1.44 ± 0.47 | 1.01 ± 0.14 | 0.813 ± 0.052 | 0.601 ± 0.082 | 0.556 ± 0.025 | 0.499 ± 0.026
12 | HCC70 BREAST | 0.996 ± 0.059 | 0.895 ± 0.096 | 0.275 ± 0.035 | 0.089 ± 0.014 | 0.0497 ± 0.0061 | 0.038 ± 0.003 | 0.032 ± 0.0089 | 0.0307 ± 0.0061 | 0.866 ± 0.073 | 0.749 ± 0.059 | 0.606 ± 0.017 | 0.536 ± 0.024 | 0.536 ± 0.052 | 0.543 ± 0.019 | 0.44 ± 0.054 | 0.429 ± 0.01
13 | SIHA CERVIX | 0.827 ± 0.039 | 0.689 ± 0.052 | 0.555 ± 0.023 | 0.487 ± 0.026 | 0.419 ± 0.0098 | 0.391 ± 0.0081 | 0.262 ± 0.031 | 0.146 ± 0.017 | 0.822 ± 0.043 | 0.741 ± 0.04 | 0.64 ± 0.02 | 0.973 ± 0.61 | 0.605 ± 0.061 | 0.592 ± 0.049 | 0.498 ± 0.044 | 0.499 ± 0.008
14 | HSSYII SYNOVIAL | 0.679 ± 0.029 | 0.789 ± 0.13 | 0.271 ± 0.021 | 0.281 ± 0.0072 | 0.216 ± 0.007 | 0.215 ± 0.018 | 0.0975 ± 0.0058 | 0.138 ± 0.0053 | 0.781 ± 0.043 | 0.711 ± 0.066 | 0.616 ± 0.018 | 0.566 ± 0.025 | 0.476 ± 0.011 | 0.462 ± 0.025 | 0.416 ± 0.051 | 0.3632 ± 0.0025
15 | CADOES1 SOFT TISSUE | 0.919 ± 0.029 | 0.865 ± 0.035 | 0.953 ± 0.11 | 0.957 ± 0.14 | 0.764 ± 0.047 | 0.721 ± 0.093 | 0.401 ± 0.014 | 0.291 ± 0.026 | 0.842 ± 0.1 | 0.74 ± 0.072 | 0.529 ± 0.052 | 0.472 ± 0.11 | 0.309 ± 0.036 | 0.344 ± 0.098 | 0.259 ± 0.017 | 0.268 ± 0.04
16 | ZR751 BREAST | 0.872 ± 0.058 | 0.818 ± 0.052 | 0.575 ± 0.056 | 0.515 ± 0.0069 | 0.427 ± 0.029 | 0.463 ± 0.026 | 0.492 ± 0.041 | 0.462 ± 0.037 | 0.964 ± 0.017 | 0.715 ± 0.031 | 0.502 ± 0.054 | 0.5 ± 0.068 | 0.337 ± 0.014 | 0.353 ± 0.015 | 0.322 ± 0.038 | 0.339 ± 0.0066
17 | 143B BONE | 0.96 ± 0.021 | 0.969 ± 0.015 | 0.726 ± 0.032 | 0.494 ± 0.011 | 0.293 ± 0.033 | 0.259 ± 0.016 | 0.158 ± 0.0042 | 0.0825 ± 0.0035 | 0.954 ± 0.032 | 0.948 ± 0.022 | 0.846 ± 0.03 | 0.824 ± 0.018 | 0.8355 ± 0.00071 | 0.825 ± 0.029 | 0.793 ± 0.057 | 0.827 ± 0.096
18 | HCC202 BREAST | 1.27 ± 0.26 | 1.12 ± 0.07 | 0.855 ± 0.24 | 0.754 ± 0.042 | 0.58 ± 0.028 | 0.501 ± 0.12 | 0.226 ± 0.038 | 0.14 ± 0.049 | 1 ± 0.083 | 0.79 ± 0.055 | 0.548 ± 0.15 | 0.578 ± 0.13 | 0.383 ± 0.093 | 0.471 ± 0.1 | 0.44 ± 0.054 | 0.385 ± 0.14
19 | LM7 BONE | 0.842 ± 0.039 | 0.674 ± 0.036 | 0.51 ± 0.0046 | 0.457 ± 0.046 | 0.386 ± 0.033 | 0.327 ± 0.036 | 0.115 ± 0.006 | 0.0547 ± 0.0084 | 0.934 ± 0.053 | 0.87 ± 0.056 | 0.803 ± 0.1 | 0.785 ± 0.12 | 0.77 ± 0.085 | 0.752 ± 0.046 | 0.674 ± 0.087 | 0.609 ± 0.044
20 | CAL120 BREAST | 0.904 ± 0.0095 | 0.599 ± 0.021 | 0.364 ± 0.019 | 0.287 ± 0.0047 | 0.242 ± 0.03 | 0.223 ± 0.0029 | 0.24 ± 0.028 | 0.151 ± 0.018 | 0.707 ± 0.073 | 0.602 ± 0.062 | 0.501 ± 0.028 | 0.486 ± 0.026 | 0.463 ± 0.007 | 0.45 ± 0.021 | 0.424 ± 0.021 | 0.412 ± 0.0054
